Laboratory results reported in US20130209439A1, “INHIBITORS OF PDE4 BINDING TO HSP20” (THE UNIVERSITY COURT OF THE UNIVERSITY OF GLASGOW, priority 2010, published 2013).

T1: HSP20, wild type, transfected into HEKB2 / HEK293 cells (human, UniProt O14558 1-160)
T1 construct: Expressed from pcDNA6.2-Hsp20 (Gateway cloning into pcDNA6.2/V5-DEST); Immunopurified from cell lysates; also called HSP20 wt
T1 sequence: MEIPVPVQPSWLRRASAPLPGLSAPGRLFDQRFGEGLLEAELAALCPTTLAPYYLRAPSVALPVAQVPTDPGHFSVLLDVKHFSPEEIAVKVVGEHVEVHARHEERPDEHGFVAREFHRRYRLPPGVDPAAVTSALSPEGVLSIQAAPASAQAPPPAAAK

B1: GST-PDE4D5 (enzyme)
chain: MAQQTSPDTLTVPEVDNPHCPNPWLNEDLVKSLRENLLQHEKSKTARKSVSPKLSPVISPRNSPRLLRRMLLSSNIPKQRRFTVAHTCFDVDNGTSAGRSPLDPMTSPGSGLILQANFVHSQRRESFLYRSDSDYDLSPKSMSRNSSIASDIHGDDLIVTPFAQVLASLRTVRNNFAALTNLQDRAPSKRSPMCNQPSINKATITEEAYQKLASETLEELDWCLDQLETLQTRHSVSEMASNKFKRMLNRELTHLSEMSRSGNQVSEFISNTFLDKQHEVEIPSPTQKEKEKKKRPMSQISGVKKLMHSSSLTNSSIPRFGVKTEQEDVLAKELEDVNKWGLHVFRIAELSGNRPLTVIMHTIFQERDLLKTFKIPVDTLITYLMTLEDHYHADVAYHNNIHAADVVQSTHVLLSTPALEAVFTDLEILAAIFASAIHDVDHPGVSNQFLINTNSELALMYNDSSVLENHHLAVGFKLLQEENCDIFQNLTKKQRQSLRKMVIDIVLATDMSKHMNLLADLKTMVETKKVTSSGVLLLDNYSDRIQVLQNMVHCADLSNPTKPLQLYRQWTDRIMEEFFRQGDRERERGMEISPMCDKHNASVEKSQVGFIDYIVHPLWETWADLVHPDAQDILDTLEDNREWYQSTIPQSPSPAPDDPEEGRQGQTEKFQFELTLEEDGESDTEKDSGSQVEEDTSCSDSKTLCTQDSESTEIPLDEQVEEEAVGEEEESQPEACVIDDRSPDT
notes: Expressed in E. coli and purified; Printed both GST-PDE4D5 and PDE4D5-GST; also called PDE4D5-GST; not shown: glutathione-S-transferase (GST) tag
B2: PDE4D5 (transfected into HEKB2 / HEK293 cells) (enzyme)
chain: B1 chain
B3: His-HSP20 (purified recombinant His-tagged HSP20) (other)
chain: T1 sequence
notes: Expressed in E. coli BL21 from pET28c and purified on nickel; also called HSP20-His; HSP20-6His; not shown: His tag from the pET28c vector

Legend:
PDE4 = PDE4 activity associated with HSP20 immunoprecipitates from cardiac myocytes; type: cell-based, rat; conditions: isoprenaline 1 μM
Protocol: FIG. 3. HSP20 forms a complex with members of the PDE4 family of phosphodiesterases. A (upper panel), Immunopurification (Ips) of HSP20 from cellular lysates isolated from myocytes following treatment with Isoprenaline (1 μM) were blotted for the presence of PDE4D isoforms. B, (lower panel) The PDE4 activity associated with HSP20 Ips was determined. C, Members of the PDE4D sub-family of PDE4s were co-expressed with HSP20 in HEKB2 cells. HSP20 Ips were probed for PDE4D isoforms.
PDE activity was measured using a radioactive cAMP hydrolysis assay that has been described previously^56. [8-^3H]adenosine cyclic-3,5′-mono-phosphate was sourced from Amersham Biosciences (Little Chalfont, U.K.) and cyclic-3′,5′-mono-phosphate from Sigma.
Immunopurification (Ips) of HSP20 from cardiac myocytes were screened for associating PDE4 by Western blotting analysis and cAMP PDE assay (FIG. 3A).

[1] = tested on: neonatal cardiac myocytes; assay: Cardiac myocyte cell size, manual cross-sectional area; type: cell-based, rat; conditions: 24 hour isoprenaline 10 μM, 30 min pre-treatment with 10 μM peptide
Protocol: (§1) FIG. 7. Peptide disruption of the PDE4D-HSP20 complex attenuates the hypertrophic response triggered by constant […]-agonist treatment. A, Upper panel. The area covered by isolated cardiac myocytes was used as a measure of cell size. Lower panel, Graphical depiction of the mean areas (N=100) of cells following 24 hours of indicated treatments. B, impedance measurements were used to calculate continuous normalised cell index using exCELLigence technology Normalised mean (n=4) cell index after 24 hours of indicated treatments.
Cardiomyocytes were plated out on gelatin (Sigma) pre-coated 6-well plates and placed in an incubator at 37° C. and an atmosphere of 5% CO2. After 24 h the cardiomyocytes were cultured in a serum-free condition for 48 h before experiments. The cardiomyocytes were then challenged for 24 h with either 10 μM isoprenaline alone or isoprenaline following a 30 min pre-treatment with 10 μM rolipram, 10 μM bs906 or 10 μM control peptide. Thereafter, cell size was determined on phase-contrast microscope. […] from randomly selected microscope images (400×) were captured digitally and analysed. Cross-sectional area was determined by the following formula: cross-sectional area=(radius)^2×π. Values are expressed as means±SE of five separate culture preparations. A f-test was performed to compare the two groups, and the P values are indicated.

[2] = tested on: Phospho-Ser16 HSP20 in HEKB2 cells; assay: Ser16 phosphorylation of HSP20 in HEKB2 cells overexpressing HSP20 (Western blot); type: cell-based; conditions: HEKB2 cells transfected with wt HSP20, isoprenaline 1 μM, indicated times
Protocol: FIG. 1. The phosphorylation of HSP20 at Ser16 is modulated by PDE4 activity in HEKB2 cells. A, HEKB2 cells overexpressing HSP20 or HSP20 ser16-Ala mutant were treated with isoprenaline for indicated times. Cellular lysates were blotted for HSP20 and Phospho-Ser16 HSP20. B, HEKB2 cells overexpressing HSP20 were treated with isoprenaline for indicated times, Cellular lysates were blotted for HSP20 and Phospho-Ser16 HSP20. C, HEKB2 cells overexpressing HSP20 were treated with isoprenaline for indicated times following pre-treatment with the PDE4-specific inhibitor, rolipram. Cellular lysates were blotted for HSP20 and Phospho-Ser16 HSP20. D, Quantifications of data from FIGS. 1B and 1C (n=4). * Denotes significance at a level p<0.05 E, Lysate from untransfected HEKB2 cells was blotted for HSP20 and Phospho-Ser16 HSP20.
(§2) HEK293B2 cells are a stable cell line overexpressing the GFP-tagged β2AR were cultured as previously described^48. HEK293B2 cells were transiently transfected with wild type HSP20 or a phosphorylation defective HSP20 (S16A) or a phosphorylation mimic HSP20 (S16D). Neonatal cardiac myocytes were prepared and cultured as previously described^30. Cell lysis, immunopurification and western blotting was done as described before by us in some detail^48. Briefly, HEK 293 cells were transiently transfected with wild-type HSP20 by using Polyfect Transfection Reagent (Qiagen). Transfected HEK 293 cells were treated with 10 μM bs906 or 10 μM control peptide for 0, 15, 30, 60 and 120 min. Control and treated transfected HEK 293 cells were then washed thrice with ice cold PBS (phosphate buffered saline) before cellular lysates were prepared. Cellular lysates were prepared in lysis buffer containing 25 mM Hepes, pH 7.5, 2.5 mM EDTA, 50 mM NaCl, 50 mM NaF, […], 10% (v/v) glycerol, 1% (v/v) Triton X-100 and Complete™ EDTA-free protease inhibitor cocktail tablets (Roche). Protein concentration of lysates were determined using the Bradford assay and all samples were equalised for protein concentration. Proteins were separated by SOS/PAGE (4-12% Bis-Tris gels) and transferred onto nitrocellulose membranes for Western blotting. Antibodies were used to detect phospho-proteins and native proteins in lysates from control and treated cells
In contrast to this, when we transfected these cells with a phospho-null mutant form, Ser16Ala-Hsp20, then no such change was observed (FIG. 1A). In order to evaluate whether PDE4 activity played a role in regulating this phosphorylation process in Hsp20-transfected HEKB2 cells, cells that had either been pre-treated or not with the PDE4 selective inhibitor rolipram were subsequently challenged with isoprenaline (1 μM) (FIGS. 1B and C). […] Endogenous levels of phospho-HSP20 or HSP20 were not detectable in HEKB2 cells (FIG. 1E).

[3] = tested on: neonatal cardiac myocytes; assay: Cardiac myocyte size by xCELLigence impedance (normalised cell index); type: cell-based, rat; conditions: 24 hour isoprenaline 10 μM, 30 min pre-treatment with 10 μM peptide
Protocol: as §1
The E-Plate 96 (Roche) was used for these experiments^45. This comprises a 96-well plate with integral sensor electrode arrays to measure cell impedance. […] E-plate 96 is a 96-well microtiter plate with incorporated gold cell sensor arrays in the bottom, which allows impedance inside each well to be monitored and assayed in real time. […] The impedance measured between electrodes in an individual well depends on electrode geometry, ion concentration in the well and whether or not cells are attached to the electrodes^45. In the absence of cells, electrode impedance is mainly determined by the ion environment both at the electrode/solution interface and in the bulk solution. […] Small changes in impedance can also be recorded when cells temporally change shape or size in response to agonists^46,57. […]

[4] = tested on: Phospho-Ser16 HSP20 in neonatal cardiac myocytes; assay: Ser16 phosphorylation of endogenous HSP20 in neonatal cardiac myocytes (Western blot); type: cell-based, rat; conditions: neonatal cardiomyocytes, isoprenaline challenge
Protocol: FIG. 2. The phosphorylation of HSP20 at Ser16 is modulated by PDE4 activity in cardiac myocytes. A, Neonatal cardiac myocytes were treated with isoprenaline for indicated times with or without pre-treatment with the PDE4-specific inhibitor, rolipram. Cellular lysates were blotted for HSP20 and Phospho-Ser16 HSP20. B, Quantifications of data from FIG. 2A (n=3). * Denotes significance at a level p<0.05 over iso treatment.
as §2
To determine whether inhibition of PDE4 activity had similar effects on endogenous phospho-HSP20 levels in heart cells, similar experiments were undertaken using neonatal cardiomyocytes (FIG. 2).

[5] = target: B3; assay: GST pull-down with purified recombinant proteins, immunoblot (data not shown)
Protocol: (§3) GST-PDE4 fusions proteins (500 μl of 2 μM) were mixed with 100 μl slurry of 50% (v/v) PBS-washed Glutathione beads for 2 h at 4° C. The beads were pelleted by centrifugation (14,000 g, 1 min) and washed twice with PBS containing 1% Triton X-100 before the addition of equal molar amounts of […] fusion protein in a 1 mL solution of PBS and Triton X-100 containing 5 mM dithiothreitol. After a 2 h incubation at 4° C. the beads were collected and washed three times with PBS and eluted in 100 μl of 2× Laemmli buffer. Eluates were resolved by SDS-PAGE, and the HSP20-His fusion proteins were detected by immunoblotting.
(§4) To evaluate further Hsp20 association with PDE4, we set out to determine whether they interacted directly. In order to do this we expressed Hsp20 and various PDE4 species in E. coli and purified them for use in pull-down assays. […] Additionally, we performed the converse experiment and first did pull-downs of HSP20, using its His tag, and then tested for co-purification of PDE4 species.

[6] = target: T1, HSP20, wild type, transfected into …; assay: co-immunopurification with HSP20 from co-transfected HEKB2 cells, Western blot
Protocol: HEK293B2 cells are a stable cell line overexpressing the GFP-tagged β₂AR were cultured as previously described⁴⁸. HEK293B2 cells were transiently transfected with wild type HSP20 or a phosphorylation defective HSP20 (S16A) or a phosphorylation mimic HSP20 (S16D). […] Cell lysis, immunopurification and western blotting was done as described before by us in some detail⁴⁸. Briefly, HEK 293 cells were transiently transfected with wild-type HSP20 by using Polyfect Transfection Reagent (Qiagen). […] Control and treated transfected HEK 293 cells were then washed thrice with ice cold PBS (phosphate buffered saline) before cellular lysates were prepared. Cellular lysates were prepared in lysis buffer containing 25 mM Hepes, pH 7.5, 2.5 mM EDTA, 50 mM NaCl, 50 mM NaF, μM sodium pyrophosphate, 10% (v/v) glycerol, 1% (v/v) Triton X-100 and Complete™ EDTA-free protease inhibitor cocktail tablets (Roche). Protein concentration of lysates were determined using the Bradford assay and all samples were equalised for protein concentration. […] Antibodies were used to detect phospho-proteins and native proteins in lysates from control and treated cells
As before, we immunopurified HSP20 and blotted for the presence of transfected isoforms (FIG. 38).

GST alone = target: T2, GST alone (UniProt P08515 1-218 = GST); assay: GST pull-down with purified recombinant proteins, immunoblot
T2 construct: Control of the pull-down
Protocol: as §3, §4

T2 sequence (P08515 whole entry): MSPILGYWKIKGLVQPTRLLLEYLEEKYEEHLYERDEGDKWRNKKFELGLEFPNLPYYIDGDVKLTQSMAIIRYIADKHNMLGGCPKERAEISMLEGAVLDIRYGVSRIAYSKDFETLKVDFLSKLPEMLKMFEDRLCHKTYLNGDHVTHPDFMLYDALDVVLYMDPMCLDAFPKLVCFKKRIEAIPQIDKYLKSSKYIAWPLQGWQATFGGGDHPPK

Molecule: CC(C)NCC(O)c1ccc(O)c(O)c1 (centres unmarked) [isoprenaline]
increase in PDE4 activity associated with HSP20 immunoprecipitates vs untreated lysates (PDE4): 2.5 fold | cell size (cross-sectional area) of cardiac myocytes [1]: marked increase in cell size | phosphorylation of Hsp20 at Ser16 [2]: time dependent phosphorylation of Hsp20 at Ser16 | cell size (normalised cell index, impedance) of cardiac myocytes [3]: marked increase in cell size | endogenous phospho-HSP20 levels [4]: induced an increase in endogenous phospho-HSP20 levels

Molecule: B1
binding result [5]: binds

Molecule: B2
binding result [6]: binds

Molecule: B3
binding result (GST alone): no binding
